{"source": "patent US6030975A", "about": "“Carboxylic acid derivatives, their preparation and use in treating cancer” (priority 1997, dated 2000)", "key": {"[1]": {"molecular_target": "T1, human ETA receptor (Homo sapiens, UniProt P25101)", "T1 construct": "expressed in transfected cells; host or cells: CHO cells", "T1 sequence (P25101 21-427)": "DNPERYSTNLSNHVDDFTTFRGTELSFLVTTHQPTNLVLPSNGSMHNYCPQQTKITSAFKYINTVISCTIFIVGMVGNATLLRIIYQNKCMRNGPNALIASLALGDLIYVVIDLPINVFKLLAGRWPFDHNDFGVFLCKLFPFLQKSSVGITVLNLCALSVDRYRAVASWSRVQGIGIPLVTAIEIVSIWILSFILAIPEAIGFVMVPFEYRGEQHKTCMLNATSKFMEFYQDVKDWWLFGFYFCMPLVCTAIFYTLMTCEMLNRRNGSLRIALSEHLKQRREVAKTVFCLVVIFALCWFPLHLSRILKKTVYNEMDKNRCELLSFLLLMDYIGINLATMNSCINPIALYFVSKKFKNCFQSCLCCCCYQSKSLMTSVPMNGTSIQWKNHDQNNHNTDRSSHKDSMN", "assay": "ETA receptor binding assay ([125I]-ET1) on membranes of CHO cells expressing cloned human ETA receptor", "details": "Table III", "method": "(§1) Cloned human ETA receptor-expressing CHO cells and guinea pig cerebellar membranes with >60% ETB compared with ETA receptors were used for binding studies.\nThe ETA receptor-expressing CHO cells were grown in F12 medium containing 10% fetal calf serum, 1% glutamine, 100 U/ml penicillin and 0.2% streptomycin (Gibco BRL, Gaithersburg, Md., USA). After 48 h, the cells were washed with PBS and incubated with 0.05% trypsin-containing PBS for 5 min. Neutralization was then carried out with F12 medium, and the cells were collected by centrifugation at 300×g. To lyze the cells, the pellet was briefly washed with lysis buffer (5 mM Tris-HCl, pH 7.4 with 10% glycerol) and then incubated at a concentration of 10^7 cells/ml of lysis buffer at 4° C. for 30 min. The membranes were centrifuged at 20,000×g for 10 min., and the pellet was stored in liquid nitrogen.\n(§2) The nonspecific binding was determined using 10^-7 M ET1. After 30 min., the free and bound radioligand were separated by filtration through GF/B glass fiber filters (Whatman, England) on a Skatron cell collector (Skatron, Lier, Norway) and the filters were washed with ice-cold Tris-HCl buffer, pH 7.4 with 0.2% BSA. The radioactivity collected on the filters was quantified using a Packard 2200 CA liquid scintillation counter.\nThe Ki values shown in Table A were determined by non-linear regression analysis using the LIGAND program."}, "[2]": {"molecular_target": "T2, ETB receptor (Cavia porcellus, UniProt H0VTF3)", "T2 construct": "Guinea pig cerebella were homogenized; from tissue; host or cells: guinea pig cerebellum membranes", "T2 sequence (H0VTF3 27-415)": "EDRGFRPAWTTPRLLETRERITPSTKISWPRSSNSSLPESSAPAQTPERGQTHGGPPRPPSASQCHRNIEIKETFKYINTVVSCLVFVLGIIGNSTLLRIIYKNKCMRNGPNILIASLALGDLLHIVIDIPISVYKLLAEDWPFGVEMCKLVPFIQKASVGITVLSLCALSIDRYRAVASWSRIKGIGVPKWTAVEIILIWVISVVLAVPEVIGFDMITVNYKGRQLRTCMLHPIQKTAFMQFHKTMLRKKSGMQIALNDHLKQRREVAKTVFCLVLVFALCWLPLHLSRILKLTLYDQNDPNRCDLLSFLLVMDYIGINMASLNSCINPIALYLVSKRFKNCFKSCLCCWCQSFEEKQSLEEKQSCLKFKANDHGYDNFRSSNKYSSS", "assay": "ETB receptor binding assay ([125I]-RZ3) on guinea pig cerebellar membranes", "details": "Table III", "method": "as §1\nGuinea pig cerebella were homogenized in a Potter-Elvejhem homogenizer and membranes were obtained by differential centrifugation at 1000×g for 10 min. and repeated centrifugation of the supernatant at 20,000×g for 10 min.\nas §2"}, "[3]": {"system": "DU-145 prostate tumor", "assay": "DU-145 Model: human prostate (HTB 81) tumor fragments implanted subcutaneously in nude mice", "type": "in vivo", "experimental": "For example, human tumors which have been grown in nude mice can be transplanted into new recipient mice using tumor fragments which are about 50 mg in size. The day of transplantation is designated as day 0. Five to fifteen days later, the mice are treated with the test compounds given as an intravenous or intraperitoneal injection, in groups of five to ten mice at each dose. Compounds are given daily for either 5, 10 or 15 days, at dosed from 0.1-1000 mg/kg of body weight.\nTumor diameters and body weights are measured periodically. Tumor mass is calculated using the diameters measured with Vernier calipers, and the formula:\n(length×width2)/2=mg of tumor weight\nMean tumor weights are calculated for each treatment group relative to the untreated control tumors. The DU-145 Model is a specific example of this type of assay and is described below.\nHuman tumor fragments from prostate (HTB 81), which had been grown in nude mice were implanted subcutaneously via trochar, in the dorsal side of new recipient nude mice, as is well known in the art. The day of implantation is designated as day 0.\nTreatment was commenced on day 11 post implantation using Compound I-1 of Table I. There were 6 mice in each treatment group with the mode of administration and amounts administered (mg/kg of body weight) described in Table XI. Compound I-1 was administered once a day for 10 days commencing, as earlier stated, at day 11 post implantation (Q1D×10:11)."}}, "data": [{"smiles": "CCCOC(c1ccccc1)(c1ccccc1)C(Oc1nc(OC)cc(OC)n1)C(=O)O", "note": "(stereo not drawn) [Compound I-12]", "values": [{"measurement": "Ki", "setting": "[1]", "result": 19, "unit": "nM"}]}, {"smiles": "COc1cc(OC)nc(OC(C(=O)O)C(OC)(c2ccc(F)cc2)c2ccc(F)cc2)n1", "note": "(stereo not drawn) [Compound I-60]", "values": [{"measurement": "Ki", "setting": "[1]", "result": 33, "unit": "nM"}, {"measurement": "Ki", "setting": "[2]", "result": 970, "unit": "nM"}]}, {"smiles": "CCOC(c1ccccc1)(c1ccccc1)C(Oc1nc(OC)cc(OC)n1)C(=O)O", "note": "(stereo not drawn) [Compound I-4]", "values": [{"measurement": "Ki", "setting": "[1]", "result": 7, "unit": "nM"}]}, {"smiles": "COc1cc(OC)nc(OC(C(=O)O)C(OC)(c2ccccc2)c2ccccc2)n1", "note": "(stereo not drawn) [Compound I-2, 2-(4,6-Dimethoxy-pyrimidin-2-yloxy)-3-methoxy-3,3-diphenylpropionic acid]", "values": [{"measurement": "Ki", "setting": "[1]", "result": 6, "unit": "nM"}]}, {"smiles": "COC(=O)C(Oc1nc(OC)cc(OC)n1)C(OC)(c1ccccc1)c1ccccc1", "note": "(stereo not drawn) [Compound I-1, Methyl 2-(4,6-dimethoxy-pyrimidin-2-yloxy)-3-methoxy-3,3-diphenylpropionate]", "values": [{"measurement": "Days for Tumor Weight = 1000 mg", "setting": "[3]; 100 mg/kg IV, Q1Dx10:11", "result": 39.3, "unit": "days"}, {"measurement": "Mean Tumor Weight (MTW) on Day 33", "setting": "[3]; 100 mg/kg IV, Q1Dx10:11", "result": 561, "unit": "mg"}, {"measurement": "Days for Tumor Weight = 1000 mg", "setting": "[3]; 150 mg/kg IP, Q1DX10:11", "result": 59.3, "unit": "days"}, {"measurement": "Mean Tumor Weight (MTW) on Day 33", "setting": "[3]; 150 mg/kg IP, Q1DX10:11", "result": 407, "unit": "mg"}, {"measurement": "Days for Tumor Weight = 1000 mg", "setting": "[3]; 150 mg/kg IV, Q1DX10:11", "result": 37.4, "unit": "days"}, {"measurement": "Mean Tumor Weight (MTW) on Day 33", "setting": "[3]; 150 mg/kg IV, Q1DX10:11", "result": 793, "unit": "mg"}, {"measurement": "Days for Tumor Weight = 1000 mg", "setting": "[3]; 220 mg/kg IP, Q1DX10:11", "result": 50.9, "unit": "days"}, {"measurement": "Mean Tumor Weight (MTW) on Day 33", "setting": "[3]; 220 mg/kg IP, Q1DX10:11", "result": 470, "unit": "mg"}, {"measurement": "MTW % T/C", "setting": "[3]; Day 33, 100 mg/kg IV, Q1Dx10:11", "result": 45.54, "unit": "%"}, {"measurement": "MTW % T/C", "setting": "[3]; Day 33, 150 mg/kg IP, Q1DX10:11", "result": 33.04, "unit": "%"}, {"measurement": "MTW % T/C", "setting": "[3]; Day 33, 150 mg/kg IV, Q1DX10:11", "result": 64.37, "unit": "%"}, {"measurement": "MTW % T/C", "setting": "[3]; Day 33, 220 mg/kg IP, Q1DX10:11", "result": 38.15, "unit": "%"}, {"measurement": "response to administration (reduction in the %T/C Mean Tumor Weight)", "setting": "[3]; all doses, IV and IP", "result": "all treatment groups responded"}]}]}
